Assay results from publication PMC8935241, “Ebselen enhances insulin sensitivity and decreases oxidative stress by inhibiting SHIP2 and protects from inflammation in diabetic mice” (International Journal of Biological Sciences, 2022).

Assays:
[1] = molecular target: T1, SHIP2 (Src homology 2 domain-containing inositol-5-phosphatase 2) (Homo sapiens, UniProt O15357); test: malachite green phosphate assay with PI([…])P3 diC8 on recombinant phosphatase domain; assay type: biochemical
T1 construct: gene INPPL1; Recombinant His-tagged human SHIP2 phosphatase domain
T1 sequence (O15357 419-732 limits assumed): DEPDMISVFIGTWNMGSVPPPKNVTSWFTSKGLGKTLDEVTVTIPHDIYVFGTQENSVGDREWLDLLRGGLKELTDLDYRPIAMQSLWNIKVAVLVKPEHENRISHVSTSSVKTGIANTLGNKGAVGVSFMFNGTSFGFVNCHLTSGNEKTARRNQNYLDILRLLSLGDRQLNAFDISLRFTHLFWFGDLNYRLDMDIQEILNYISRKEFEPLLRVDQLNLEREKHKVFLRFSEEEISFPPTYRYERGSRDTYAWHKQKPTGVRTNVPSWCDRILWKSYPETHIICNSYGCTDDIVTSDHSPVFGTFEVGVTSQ

[2] = molecular target: T2, SHIP1 (Src homology 2 domain-containing inositol-5-phosphatase 1) (Homo sapiens, UniProt Q92835); test: as above; assay type: biochemical
T2 construct: gene INPP5D; Recombinant His-tagged human SHIP1 phosphatase domain
T2 sequence (Q92835 399-715 limits assumed): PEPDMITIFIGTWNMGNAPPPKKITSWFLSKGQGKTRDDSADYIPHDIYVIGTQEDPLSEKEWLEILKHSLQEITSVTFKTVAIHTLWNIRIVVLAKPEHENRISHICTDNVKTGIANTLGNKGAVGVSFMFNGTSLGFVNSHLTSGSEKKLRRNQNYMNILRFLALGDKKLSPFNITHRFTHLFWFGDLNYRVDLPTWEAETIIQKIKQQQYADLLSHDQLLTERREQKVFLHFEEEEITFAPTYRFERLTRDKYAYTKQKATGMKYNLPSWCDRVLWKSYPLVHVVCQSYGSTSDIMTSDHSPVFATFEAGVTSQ

An IC50 [1] of 480 nM and an IC50 [2] of 1810 nM were found for `O=c1c2ccccc2[se]n1-c1ccccc1` [ebselen] in this work.
